Several values for one entry are separate records, joined by “and”; a condition that tells them apart may be missing. Equal entries are not always repeated. Where two headings read alike, the source gives them in different places. Non-standard residues stand in square brackets, D forms with d. Residues, ends and D or L forms follow the SMILES beside them. No end group written: not given here. Dap = NC[C@H](N)C(=O)O
Key:
mMC1R [1] = target: T1, mMC1R (Mus musculus, UniProt Q01727); set-up: expressed in transfected cells; host or cells: HEK293; details: literature value; read-out: reported agonist potency at the mMC1R; cited from earlier work
T1 sequence (Q01727 whole entry): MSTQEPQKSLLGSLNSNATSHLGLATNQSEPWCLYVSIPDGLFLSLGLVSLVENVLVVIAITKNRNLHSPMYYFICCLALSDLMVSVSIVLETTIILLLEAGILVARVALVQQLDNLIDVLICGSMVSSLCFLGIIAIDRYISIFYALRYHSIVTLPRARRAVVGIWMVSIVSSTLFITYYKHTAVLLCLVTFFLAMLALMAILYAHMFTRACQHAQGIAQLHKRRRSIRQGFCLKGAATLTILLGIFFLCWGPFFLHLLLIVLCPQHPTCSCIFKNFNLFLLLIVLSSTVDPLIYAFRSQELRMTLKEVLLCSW

mMC3R [2] = target: T2, mMC3R (Mus musculus, UniProt P33033); set-up: expressed in transfected cells; host or cells: HEK293; details: literature value; read-out: reported agonist potency at the mMC3R; cited from earlier work
T2 sequence (P33033 whole entry): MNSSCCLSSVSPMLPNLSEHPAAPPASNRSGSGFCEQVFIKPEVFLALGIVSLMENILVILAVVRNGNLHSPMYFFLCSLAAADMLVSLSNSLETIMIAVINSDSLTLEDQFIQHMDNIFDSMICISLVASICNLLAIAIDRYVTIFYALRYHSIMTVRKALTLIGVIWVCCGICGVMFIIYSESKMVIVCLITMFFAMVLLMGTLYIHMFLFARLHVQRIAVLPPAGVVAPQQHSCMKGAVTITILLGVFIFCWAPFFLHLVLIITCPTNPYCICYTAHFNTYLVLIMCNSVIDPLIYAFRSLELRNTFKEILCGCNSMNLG

mMC5R [3] = target: T3, mMC5R (Mus musculus, UniProt P41149); set-up: expressed in transfected cells; host or cells: HEK293; details: literature value; read-out: reported agonist potency at the mMC5R; cited from earlier work
T3 sequence (P41149 whole entry): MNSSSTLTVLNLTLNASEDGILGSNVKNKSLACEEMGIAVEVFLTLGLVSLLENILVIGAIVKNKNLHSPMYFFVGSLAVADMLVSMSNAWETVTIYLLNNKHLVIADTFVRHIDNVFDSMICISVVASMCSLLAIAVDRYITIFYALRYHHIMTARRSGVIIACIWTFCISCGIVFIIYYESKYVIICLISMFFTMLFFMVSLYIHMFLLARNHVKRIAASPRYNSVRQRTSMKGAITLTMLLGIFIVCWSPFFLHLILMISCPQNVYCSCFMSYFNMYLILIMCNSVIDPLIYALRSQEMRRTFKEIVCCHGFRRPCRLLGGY

mMC4R [4] = target: T4, mMC4R (Mus musculus, UniProt P56450); set-up: expressed in transfected cells; host or cells: HEK293; details: cited from earlier work; for EC50: literature value, read-out: reported agonist potency at the mMC4R; for reported selectivity for the mMC4R over the mMC3R: literature chimeric ligands
T4 sequence (P56450 whole entry): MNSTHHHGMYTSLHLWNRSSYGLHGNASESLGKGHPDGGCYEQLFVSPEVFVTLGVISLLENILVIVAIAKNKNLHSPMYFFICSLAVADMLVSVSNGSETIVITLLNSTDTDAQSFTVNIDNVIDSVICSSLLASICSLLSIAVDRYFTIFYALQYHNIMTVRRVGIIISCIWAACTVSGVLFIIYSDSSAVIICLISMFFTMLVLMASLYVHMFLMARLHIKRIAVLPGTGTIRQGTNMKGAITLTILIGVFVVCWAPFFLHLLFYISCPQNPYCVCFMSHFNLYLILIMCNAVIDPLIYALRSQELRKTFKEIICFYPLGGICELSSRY

male mice = assay: ICV or IT administration in male mice monitored in TSE metabolic cages; type: in vivo
From the text: As described herein, compound 2 (c[Pro-His-DPhe-Arg-Trp-Dap-Ala-DPro] (SEQ ID NO:4)) has been administered in male mice. This compound has been administered via a cannula directly into the brain (ICV administration) or through an injection into the spinal cord (IT administration), at three different doses each administration route (2 nmol, 5 nmol, and 10 nmol). After compound administration, the mice were monitored in TSE metabolic cages, which record food intake, water intake, ambulatory activity (how many times a mouse breaks a light beam, which can give an indication of toxicity), respiratory-exchange ratio (RER, ratio between amount of CO2 produced in metabolism and O2 consumed, giving an indication if fat [RER value closer to 0.7] or carbohydrates [RER value closer to 1] is the energy source being utilized), and energy expenditure.

mMC5R [5] = target: T3, mMC5R; assay: cAMP AlphaScreen agonist assay, HEK293 cells stably expressing mouse MC5R; details: read-out: mMC5R EC50; agonist, cAMP
mMC1R [6] = target: T1, mMC1R; assay: cAMP AlphaScreen agonist assay, HEK293 cells stably expressing mouse MC1R; details: read-out: mMC1R EC50; agonist, cAMP
mMC4R [7] = target: T4, mMC4R; assay: cAMP AlphaScreen agonist assay, HEK293 cells stably expressing mouse MC4R
mMC3R [8] = target: T2, mMC3R; assay: cAMP AlphaScreen agonist assay, HEK293 cells stably expressing mouse MC3R; details: read-out: mMC3R EC50; agonist, cAMP
mMC4R [9] = target: T4, mMC4R; set-up: expressed in transfected cells; host or cells: HEK293; details: AGRP intrinsic potency; cited from earlier work
[10] = compound versus vehicle treated animals

## Ac-mini-(His-DPhe-Arg-Trp)hAGRP-NH2
mMC1R [1]
  EC50: 160 pM
mMC3R [2]
  EC50: 30000 pM
mMC5R [3]
  EC50: 600 pM and 560 pM
mMC4R [4]
  EC50: 1400 pM

## Tyr-c[Cys-His-DPhe-Arg-Trp-Asn-Ala-Phe-Cys]-Tyr-NH2 (FRWNAFC; not fully specified; Tyr-Cys-His, disulfide, Tyr-NH2; printed: Phe-Arg-Trp-Asn-Ala-Phe-Cys) [previously reported disulfide bridged AGRP/NDP-MSH chimeric ligand]
mMC1R [1]
  EC50: 350 pM
mMC3R [2]
  EC50: 2000 pM
mMC5R [3]
  EC50: 2000 pM
mMC4R [4]
  reported selectivity for the mMC4R over the mMC3R: 7 fold
  EC50: 300 pM

## Tyr-c[Asp-His-DPhe-Arg-Trp-Asn-Ala-Phe-Dap]-Tyr-NH2 (FRWNAF; Tyr-Asp-His, Dap lactam, Tyr-NH2; printed: Phe-Arg-Trp-Asn-Ala-Phe-) [previously reported lactam bridged AGRP/NDP-MSH chimeric ligand]
mMC1R [1]
  EC50: 200 pM
mMC3R [2]
  EC50: 1000 pM
mMC5R [3]
  EC50: 500 pM
mMC4R [4]
  reported selectivity for the mMC4R over the mMC3R: 5 fold
  EC50: 200 pM

## C[C@@H]1NC(=O)[C@H](CN)NC(=O)[C@H](Cc2c[nH]c3ccccc23)NC(=O)[C@H](CCCNC(=N)N)NC(=O)[C@@H](Cc2ccccc2)NC(=O)[C@H](Cc2cnc[nH]2)NC(=O)[C@@H]2CCCN2C(=O)[C@H]2CCCN2C1=O [MDE6-5-2c, c[Pro-His-DPhe-Arg-Trp-Dap-Ala-DPro]] (cyclo(H[dF]RW[Dap]A[dP]P))
Male mice; [10]
  ambulatory activity: not different
mMC5R [5]
  EC50: 300 pM
mMC1R [6]
  EC50: 1100 pM
mMC4R [7]; agonist potency
  selectivity for the mMC4R over the mMC3R: 25 fold
mMC4R [7]; read-out: mMC4R EC50, agonist, cAMP
  EC50: 1600 pM
mMC3R [8]
  EC50: 40000 pM

## C[C@@H]1NC(=O)[C@H](CN)NC(=O)[C@H](Cc2c[nH]c3ccccc23)NC(=O)[C@H](CCCNC(=N)N)NC(=O)[C@@H](Cc2ccccc2)NC(=O)[C@H](Cc2c[nH]cn2)NC(=O)[C@@H]2CCCN2C(=O)[C@H]2CCCN2C1=O [MDE6-5-2c, c[Pro-His-DPhe-Arg-Trp-Dap-Ala-DPro]] (cyclo(H[dF]RW[Dap]A[dP]P))
Male mice; ICV, 10 nmol, 72 h
  cumulative food intake following ICV administration, 10 nmol: decreased food intake through 72 h
Male mice; ICV, 10 nmol, first 24 h, versus lower doses
  Respiratory Exchange Ratio (RER) effect, ICV 10 nmol: more robust
Male mice; ICV, 2, 5, 10 nmol, first 24 h, dose response
  cumulative food intake following ICV administration: further decreased food intake
Male mice; ICV, 2 and 5 nmol, first 24 h
  Respiratory Exchange Ratio (RER), ICV 2 and 5 nmol: decreased RER compared to vehicle control
Male mice; IT
  Respiratory Exchange Ratio (RER) effect, IT administration: more modest effect
Male mice; IT, 2, 5, 10 nmol, not dose-responsive
  cumulative food intake following IT administration: decreased food intake was observed
Male mice; [10]
  energy expenditure: not different
  water intake: not different
Male mice; single dose, all cases
  duration of effects on RER following a single dose: 24 h

## AGRP: agouti-related protein, naturally occurring melanocortin antagonist (SSRRCVRLHESCLGQQVPCCDPCATCYCRFFNAFCYCRKLGTAMNPCSRT; ends and bridges not checked; cysteine pairing not given here; UniProt O00253 83-132, looked up)
mMC4R [9]
  lower potency at the mMC3R versus the mMC4R: ~10 fold

From US11124541B2, “Chimeric melanocortin ligands and methods of use thereof” (REGENTS OF THE UNIVERSITY OF MINNESOTA, priority 2016, dated 2021)
